ChEMBL document CHEMBL3822406, “Synthesis and evaluation of a series of 4-azaindole-containing p21-activated kinase-1 inhibitors” (Bioorg Med Chem Lett, 2016)
Values after ≈ are worked out from the molar mass of the structure shown. Each block holds one compound with its values, some of them ahead of it.

Key:
[1] = test system: Hepatocyte; assay: Drug uptake in mouse hepatocytes measured at 30 secs relative to control; assay type: ADME, cell-based; details: 0.5 min
[2] = test system: MDR1 (human); assay: Apparent permeability from basolateral to apical side in MDCK cells expressing human MDR1; assay type: ADME, cell-based, Canis lupus familiaris; details: dog
[3] = Volume of distribution at steady state in nude mouse at 2 mg/kg, iv; assay type: ADME, organism-based; details: in vivo, read-out: Vdss
[4] = Apparent permeability from apical to basolateral side in MDCK cells; assay type: ADME, cell-based, Canis lupus familiaris; details: dog
[5] = test system: MDR1 (human); assay: Apparent permeability from apical to basolateral side in MDCK cells expressing human MDR1; assay type: ADME, cell-based, Canis lupus familiaris; details: dog
[6] = Plasma clearance in nude mouse at 2 mg/kg, iv; assay type: ADME, organism-based
[7] = Fraction unbound in mouse plasma; assay type: ADME, cell-free
[8] = test system: Mus musculus; assay: Unbound clearance in nude mouse at 2 mg/kg, iv; assay type: ADME, organism-based; details: in vivo
[9] = Half life in nude mouse at 2 mg/kg, iv; assay type: ADME, organism-based; details: in vivo
[10] = biological target: Serine/threonine-protein kinase PAK 1/PAK 2/PAK 3 (Homo sapiens, UniProt O75914+Q13177+Q13153); assay: Inhibition of PAK1/2/3 in human EBC1 cells assessed as MEK1 phosphorylation level at Serine298 residue incubated for 2 hrs by HTRF assay; assay type: cell-based
[11] = test system: MDR1 (human); assay: Efflux ratio of apparent permeability from basolateral to apical side over apical to basolateral side in MDCK cells expressing human MDR1; assay type: ADME, cell-based, Canis lupus familiaris; details: dog
[12] = Kinetic solubility at pH 7.4 by high throughput assay; assay type: physicochemical; details: buffer, read-out: Kinetic_solubility
[13] = Lipophilicity, logD of compound at pH 7.4; assay type: physicochemical; details: buffer
[14] = biological target: Serine/threonine-protein kinase PAK 1 (Homo sapiens, UniProt Q13153); assay: Inhibition of recombinant human GST-tagged PAK1 kinase domain expressed in baculovirus expression system assessed as suppression of phosphorylation of coumarin/fluorescein-labelled FRET peptide substrate at Ser/Thr19 residues preincubated with substrate for 10 mins followed by enzyme addition measured after 60 mins by Z-Lyte assay
Serine/threonine-protein kinase PAK 1, sequence (Q13153 whole entry, the tested form may be a part): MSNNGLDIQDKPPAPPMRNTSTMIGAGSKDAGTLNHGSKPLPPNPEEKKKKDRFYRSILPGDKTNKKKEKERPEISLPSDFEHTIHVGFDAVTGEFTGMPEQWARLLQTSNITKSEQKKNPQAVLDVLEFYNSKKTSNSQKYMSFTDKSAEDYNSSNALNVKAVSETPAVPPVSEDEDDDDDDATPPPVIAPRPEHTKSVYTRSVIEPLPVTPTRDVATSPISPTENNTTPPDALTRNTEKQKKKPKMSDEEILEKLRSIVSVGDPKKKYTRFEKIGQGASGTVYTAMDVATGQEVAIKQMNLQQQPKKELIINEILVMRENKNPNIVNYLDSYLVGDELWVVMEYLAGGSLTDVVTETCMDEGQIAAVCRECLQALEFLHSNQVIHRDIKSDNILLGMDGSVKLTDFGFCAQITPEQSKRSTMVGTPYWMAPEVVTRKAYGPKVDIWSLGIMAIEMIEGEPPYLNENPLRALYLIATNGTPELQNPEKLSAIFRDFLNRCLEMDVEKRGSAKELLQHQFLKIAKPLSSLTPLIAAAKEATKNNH

[15] = biological target: Serine/threonine-protein kinase PAK 4 (Homo sapiens, UniProt O96013); assay: Inhibition of human recombinant GST-tagged PAK4 kinase domain (295 to 591 residues) expressed in baculovirus expression system assessed as suppression of phosphorylation of coumarin/fluorescein-labelled FRET peptide substrate at Ser/Thr19 residues preincubated with substrate for 10 mins followed by enzyme addition measured after 60 mins by Z-Lyte assay
Serine/threonine-protein kinase PAK 4, sequence (O96013 whole entry, the tested form may be a part): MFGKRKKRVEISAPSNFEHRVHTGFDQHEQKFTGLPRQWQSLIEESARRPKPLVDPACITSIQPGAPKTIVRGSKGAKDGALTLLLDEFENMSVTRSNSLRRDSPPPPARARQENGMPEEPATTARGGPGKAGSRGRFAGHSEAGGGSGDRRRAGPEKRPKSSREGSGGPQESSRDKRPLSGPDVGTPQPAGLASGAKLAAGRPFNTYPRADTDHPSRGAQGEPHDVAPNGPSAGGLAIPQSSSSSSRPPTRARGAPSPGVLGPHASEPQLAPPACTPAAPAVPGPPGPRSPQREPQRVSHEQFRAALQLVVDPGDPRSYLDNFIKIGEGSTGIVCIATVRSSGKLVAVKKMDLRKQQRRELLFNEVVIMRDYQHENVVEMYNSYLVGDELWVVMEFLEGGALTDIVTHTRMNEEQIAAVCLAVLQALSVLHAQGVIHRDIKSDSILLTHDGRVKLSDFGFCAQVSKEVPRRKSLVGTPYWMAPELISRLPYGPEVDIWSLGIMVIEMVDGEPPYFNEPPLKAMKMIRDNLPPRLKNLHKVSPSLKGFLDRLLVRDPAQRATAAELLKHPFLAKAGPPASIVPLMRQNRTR

[16] = Oral bioavailability in nude mouse at 25 mg/kg; assay type: ADME, organism-based; details: in vivo
[17] = Tmax in nude mouse at 25 mg/kg, po; assay type: ADME, organism-based; details: in vivo
[18] = Cmax in nude mouse at 25 mg/kg, po; assay type: ADME, organism-based; parameters: dose 25 mg/kg, route oral; details: in vivo

Compound: C[n+]1ccc(-c2ccccc2)cc1
fold change (FC) [1]: 4.7

Compound: C[C@H](Nc1nccc(Nc2cc(C3CC(F)(F)C3)[nH]n2)n1)c1ccc2[nH]ccc2n1
Ki [14]: 68 nM
IC50 [10]: 250 nM

Compound: C[C@H](Nc1nccc(Nc2cc(C3CC3)[nH]n2)n1)c1nc2cc[nH]c2cc1Cl
Ki [14]: 119 nM
IC50 [10]: 190 nM

Compound: C[C@@H](c1ccc2[nH]ccc2n1)N(C)c1nccc(Nc2cc(C3CC3)[nH]n2)n1
Ki [14]: 18 nM
IC50 [10]: 240 nM

Compound: C[C@H](Nc1nccc(Nc2cc(C3CC3)[nH]n2)n1)c1ccc2[nH]cc(Cl)c2n1
Ki [14]: 6 nM
IC50 [10]: 160 nM

Compound: C[C@H](Nc1nccc(Nc2cc(C3CC3)[nH]n2)n1)c1cc2cc[nH]c2cn1
Papp A→B [4]: 0.9 ×10⁻⁶ cm/s
fraction unbound [7]: 0.039
IC50 [10]: 68 nM
solubility kinetic [12]: 73 µM (≈ 26.3 µg/mL)

Compound: C[C@H](Nc1nccc(Nc2cc([C@@H]3C[C@H]3F)[nH]n2)n1)c1ccc2[nH]ccc2n1
Papp A→B [4]: 4.2 ×10⁻⁶ cm/s
fraction unbound [7]: 0.047
solubility kinetic [12]: 73 µM (≈ 27.6 µg/mL)

Compound: C[C@H](Nc1nccc(Nc2cc([C@H]3C[C@@H]3F)[nH]n2)n1)c1ccc2[nH]ccc2n1
Papp A→B [4]: 3.7 ×10⁻⁶ cm/s
solubility kinetic [12]: 104 µM (≈ 39.4 µg/mL)

Compound: C[C@H](Nc1nccc(Nc2cc(C3CC3)[nH]n2)n1)c1nc2cc[nH]c2cc1F
Ki [14]: 4 nM
Papp A→B [4]: 8.3 ×10⁻⁶ cm/s
fraction unbound [7]: 0.014
IC50 [10]: 57 nM
solubility kinetic [12]: 58 µM (≈ 21.9 µg/mL)

Compound: c1cc(Nc2cc(C3CC3)[nH]n2)nc(NCc2ccc3nccn3c2)n1
Ki [14]: 360 nM

Compound: CCCCNC(=O)NS(=O)(=O)c1ccc(C)cc1 [TOLBUTAMIDE]
fold change (FC) [1]: 1.4

The next lines start with the values.

Papp B→A [2]: 14.6 ×10⁻⁶ cm/s
Vd [3]: 4.5 L/kg
fold change (FC) [1]: 1.8
Papp A→B [4]: 2 ×10⁻⁶ cm/s
Papp A→B [5]: 0.5 ×10⁻⁶ cm/s
clearance [6]: 160 mL/min/kg
fraction unbound [7]: 0.008
CL free [8]: 20000 mL/min/kg
half-life [9]: 19.2 min
IC50 [10]: 120 nM
efflux ratio [11]: 27.7
solubility kinetic [12]: 69 µM (≈ 24.8 µg/mL)
logD [13]: 3.7
Compound: C[C@H](Nc1nccc(Nc2cc(C3CC3)[nH]n2)n1)c1ccc2[nH]ccc2c1

IC50 [14]: 685 nM
Compound: C[C@@H](Nc1nccc(Nc2cc(C3CC3)[nH]n2)n1)c1ccc2[nH]ccc2n1

Ki [14]: 120 nM
Ki [15]: 505 nM
Compound: c1cc(Nc2cc(C3CC3)[nH]n2)nc(NCc2ccc3[nH]ccc3n2)n1

Ki [14]: 23 nM
IC50 [10]: 180 nM
Compound: CC[C@H](Nc1nccc(Nc2cc(C3CC3)[nH]n2)n1)c1ccc2[nH]ccc2n1

Papp B→A [2]: 9.8 ×10⁻⁶ cm/s
Ki [14]: 32 nM
Vd [3]: 1.65 L/kg
bioavailability [16]: 4.8%
fold change (FC) [1]: 2.7
Tmax [17]: 34.8 min
Papp A→B [4]: 4.3 ×10⁻⁶ cm/s
Papp A→B [5]: 0.2 ×10⁻⁶ cm/s
clearance [6]: 48 mL/min/kg
fraction unbound [7]: 0.045
CL free [8]: 1067 mL/min/kg
half-life [9]: 37.8 min
IC50 [10]: 51 nM
efflux ratio [11]: 59
solubility kinetic [12]: 133 µM (≈ 47.9 µg/mL)
Cmax [18]: 4.7 µM
logD [13]: 2.7
Compound: C[C@H](Nc1nccc(Nc2cc(C3CC3)[nH]n2)n1)c1ccc2[nH]ccc2n1

fold change (FC) [1]: 6.6
Compound: O=C(O)C[C@H](O)C[C@H](O)/C=C/c1c(C2CC2)nc2ccccc2c1-c1ccc(F)cc1 [PITAVASTATIN]
